# How the values were obtained:
# [1] = biological target: Glutamate [NMDA] receptor; test: Antagonist activity at NMDA receptor (unknown origin); parameters: species or system Homo sapiens
# [2] = Antiproliferative activity against human C8146A cells assessed as growth inhibition; type: functional, cell-based
# [3] = Binding affinity to r(CUG)6 (unknown origin) assessed as inhibition of RNA-MBNL1 interaction by quantitative TR-FRET assay
# [4] = Inhibition of mouse hippocampal neurons ASIC transfected in CHO cells assessed as inhibition of acid-evoked current at -60 mV holding potential by two-electrode voltage-clamp electrophysiology assay; type: cell-based
# Homo sapiens [5] = species on record: Homo sapiens; test: Inhibition of human KIR2.X channel assessed as remaining inward current at 0.2 uM; values are per cent of control
# Homo sapiens [6] = species on record: Homo sapiens; test: Inhibition of human KIR2.X channel assessed as remaining outward current at 0.2 uM; values are per cent of control
# Mus musculus [7] = test: Neuroprotective activity in Swiss mouse focal cerebral injury model assessed as reduction of ibotenate-induced lesion size in white matter at 4 ug/kg; type: functional; parameters: scale not given: the % may be the effect or the level left
# Mus musculus [8] = test: Neuroprotective activity in Swiss mouse focal cerebral injury model assessed as reduction of ibotenate-induced lesion size in gray matter at 4 ug/kg; type: functional; parameters: scale not given: the % may be the effect or the level left
# [9] = biological target: Glutamate NMDA receptor; GRIN1/GRIN2A (Homo sapiens, UniProt Q05586+Q12879); test: Antagonist activity at NR1/NR2A receptor (unknown origin) expressed in Xenopus laevis oocytes assessed as inhibition of glutamate/glycine-induced current at pH 7.6 at -40mV holding potential by two-electrode voltage-clamp electrophysiology; type: cell-based
# Chain of Glutamate NMDA receptor; GRIN1/GRIN2A (Q12879 whole entry, other chains not shown): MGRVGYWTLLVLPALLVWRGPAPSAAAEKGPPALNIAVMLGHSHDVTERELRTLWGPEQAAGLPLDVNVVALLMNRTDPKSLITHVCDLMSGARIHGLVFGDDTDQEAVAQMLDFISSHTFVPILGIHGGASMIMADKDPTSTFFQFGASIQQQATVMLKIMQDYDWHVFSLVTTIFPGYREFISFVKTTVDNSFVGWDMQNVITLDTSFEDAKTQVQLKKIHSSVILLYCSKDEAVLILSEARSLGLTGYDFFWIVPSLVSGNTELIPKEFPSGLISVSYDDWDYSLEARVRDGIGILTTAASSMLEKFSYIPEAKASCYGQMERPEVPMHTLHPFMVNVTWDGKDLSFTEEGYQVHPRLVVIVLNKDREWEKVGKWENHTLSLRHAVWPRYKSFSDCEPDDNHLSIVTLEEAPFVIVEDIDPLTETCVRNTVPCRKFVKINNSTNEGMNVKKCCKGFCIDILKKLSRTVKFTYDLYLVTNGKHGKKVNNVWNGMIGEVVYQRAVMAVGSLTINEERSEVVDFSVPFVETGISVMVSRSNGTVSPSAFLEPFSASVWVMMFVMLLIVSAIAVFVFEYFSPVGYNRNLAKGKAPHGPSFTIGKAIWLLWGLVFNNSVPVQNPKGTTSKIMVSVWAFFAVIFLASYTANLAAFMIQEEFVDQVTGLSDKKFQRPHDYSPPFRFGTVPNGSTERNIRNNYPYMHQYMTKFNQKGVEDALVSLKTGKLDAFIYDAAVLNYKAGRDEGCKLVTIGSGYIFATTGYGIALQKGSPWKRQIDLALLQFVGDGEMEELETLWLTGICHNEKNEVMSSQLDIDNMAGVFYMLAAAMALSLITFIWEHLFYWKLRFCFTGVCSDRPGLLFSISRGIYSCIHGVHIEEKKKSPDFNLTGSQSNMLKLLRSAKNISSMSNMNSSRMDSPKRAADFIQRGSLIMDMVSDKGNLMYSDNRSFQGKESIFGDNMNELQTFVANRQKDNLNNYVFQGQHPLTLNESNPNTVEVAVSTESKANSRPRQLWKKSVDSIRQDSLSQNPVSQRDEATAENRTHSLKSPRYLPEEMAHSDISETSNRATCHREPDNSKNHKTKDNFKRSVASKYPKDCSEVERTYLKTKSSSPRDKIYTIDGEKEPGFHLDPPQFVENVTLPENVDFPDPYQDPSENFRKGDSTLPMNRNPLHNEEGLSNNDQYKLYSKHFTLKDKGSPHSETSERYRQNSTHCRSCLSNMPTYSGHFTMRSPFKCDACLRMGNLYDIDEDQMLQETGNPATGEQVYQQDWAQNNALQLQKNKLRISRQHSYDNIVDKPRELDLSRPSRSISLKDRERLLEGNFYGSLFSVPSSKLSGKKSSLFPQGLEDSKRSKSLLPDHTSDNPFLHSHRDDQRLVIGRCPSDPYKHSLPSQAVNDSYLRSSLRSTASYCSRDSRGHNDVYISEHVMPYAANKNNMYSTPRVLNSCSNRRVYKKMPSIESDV
# [10] = biological target: T1, Acid-sensing ion channel 1 (Mus musculus) (UniProt Q6NXK8); test: Inhibition of mouse hippocampal neurons ASIC1b transfected in CHO cells assessed as reduction of acid-evoked current at 3 uM at -60 mV holding potential by two-electrode voltage-clamp electrophysiology assay; type: cell-based
# T1 sequence (whole entry): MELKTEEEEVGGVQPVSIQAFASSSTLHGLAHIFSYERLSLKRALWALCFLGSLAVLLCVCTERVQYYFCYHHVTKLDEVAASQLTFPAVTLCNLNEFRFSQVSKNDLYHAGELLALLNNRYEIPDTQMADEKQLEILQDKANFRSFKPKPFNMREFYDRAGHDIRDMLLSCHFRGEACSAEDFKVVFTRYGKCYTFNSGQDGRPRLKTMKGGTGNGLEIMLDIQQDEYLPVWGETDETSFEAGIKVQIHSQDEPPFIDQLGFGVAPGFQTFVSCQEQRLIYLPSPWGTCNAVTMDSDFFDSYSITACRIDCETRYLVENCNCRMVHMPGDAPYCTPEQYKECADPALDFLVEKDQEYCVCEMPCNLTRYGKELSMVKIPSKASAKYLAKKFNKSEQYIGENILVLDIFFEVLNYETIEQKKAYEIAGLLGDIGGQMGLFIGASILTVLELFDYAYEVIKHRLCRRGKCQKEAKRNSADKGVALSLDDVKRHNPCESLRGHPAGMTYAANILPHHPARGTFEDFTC
# [11] = biological target: T2, Acid-sensing ion channel 3 (Mus musculus) (UniProt Q6X1Y6); test: Inhibition of mouse hippocampal neurons ASIC3 transfected in CHO cells assessed as reduction of acid-evoked current at 3 uM at -60 mV holding potential by two-electrode voltage-clamp electrophysiology assay; type: cell-based
# T2 sequence (whole entry): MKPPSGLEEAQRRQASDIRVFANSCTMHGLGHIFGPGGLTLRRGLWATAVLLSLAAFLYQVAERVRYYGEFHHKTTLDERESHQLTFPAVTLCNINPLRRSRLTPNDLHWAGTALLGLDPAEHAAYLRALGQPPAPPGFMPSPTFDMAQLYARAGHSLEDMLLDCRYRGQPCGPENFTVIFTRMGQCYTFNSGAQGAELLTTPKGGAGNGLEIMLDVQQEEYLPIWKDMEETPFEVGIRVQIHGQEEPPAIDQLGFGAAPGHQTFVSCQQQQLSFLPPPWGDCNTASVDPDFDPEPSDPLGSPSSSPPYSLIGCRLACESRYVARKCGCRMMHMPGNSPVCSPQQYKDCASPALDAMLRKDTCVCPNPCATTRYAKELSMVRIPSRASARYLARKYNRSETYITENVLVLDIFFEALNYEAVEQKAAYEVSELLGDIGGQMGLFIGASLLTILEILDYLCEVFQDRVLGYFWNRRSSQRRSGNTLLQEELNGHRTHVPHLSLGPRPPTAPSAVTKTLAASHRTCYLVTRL
# [12] = biological target: T1, Acid-sensing ion channel 1 (Mus musculus); test: Inhibition of mouse hippocampal neurons ASIC1a transfected in CHO cells assessed as reduction of acid-evoked current at 3 uM at -60 mV holding potential by two-electrode voltage-clamp electrophysiology assay; type: cell-based
# [13] = biological target: Diamine acetyltransferase 1 (Homo sapiens, UniProt P21673); test: Inhibition of human SSAT using spermidine as substrate
# Chain of Diamine acetyltransferase 1 (P21673 whole entry): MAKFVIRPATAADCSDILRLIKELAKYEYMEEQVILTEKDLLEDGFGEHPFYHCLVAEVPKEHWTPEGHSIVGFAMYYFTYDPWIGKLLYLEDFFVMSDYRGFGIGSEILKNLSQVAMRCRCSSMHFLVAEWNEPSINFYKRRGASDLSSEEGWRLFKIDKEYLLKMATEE
# [14] = Inhibition of mouse polyamine oxidase assessed as conversion of N-acetylspermine to […]
# [15] = biological target: T3, Diamine oxidase [copper-containing] (Homo sapiens, UniProt P19801); test: Mixed type inhibition of recombinant human DAO expressed in drosophila S2 cells; type: cell-based
# T3 sequence (P19801 whole entry): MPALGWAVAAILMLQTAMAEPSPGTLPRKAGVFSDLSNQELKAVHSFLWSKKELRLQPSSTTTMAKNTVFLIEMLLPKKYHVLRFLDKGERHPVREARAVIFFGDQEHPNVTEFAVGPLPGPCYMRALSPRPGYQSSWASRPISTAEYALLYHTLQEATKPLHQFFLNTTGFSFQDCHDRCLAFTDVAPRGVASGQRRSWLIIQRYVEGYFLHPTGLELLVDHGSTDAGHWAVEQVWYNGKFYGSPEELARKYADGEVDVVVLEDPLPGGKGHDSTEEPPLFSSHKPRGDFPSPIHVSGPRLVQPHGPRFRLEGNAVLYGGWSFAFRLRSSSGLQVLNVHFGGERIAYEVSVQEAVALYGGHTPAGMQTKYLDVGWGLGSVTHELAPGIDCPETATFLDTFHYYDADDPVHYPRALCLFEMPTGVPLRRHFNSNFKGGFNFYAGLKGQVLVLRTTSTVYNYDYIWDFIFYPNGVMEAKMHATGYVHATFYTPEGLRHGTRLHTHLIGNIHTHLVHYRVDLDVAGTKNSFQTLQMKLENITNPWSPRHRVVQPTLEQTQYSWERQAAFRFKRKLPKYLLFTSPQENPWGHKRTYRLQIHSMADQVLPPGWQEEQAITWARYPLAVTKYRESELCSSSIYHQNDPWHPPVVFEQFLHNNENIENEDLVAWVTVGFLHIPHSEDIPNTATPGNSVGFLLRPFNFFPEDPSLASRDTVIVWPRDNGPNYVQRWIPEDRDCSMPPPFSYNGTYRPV
# [16] = biological target: T4, Acid-sensing ion channel 2 (Mus musculus) (UniProt Q925H0); test: Inhibition of mouse hippocampal neurons ASIC2a transfected in CHO cells assessed as reduction of acid-evoked current at 3 uM at -60 mV holding potential by two-electrode voltage-clamp electrophysiology assay; type: cell-based
# T4 sequence (whole entry): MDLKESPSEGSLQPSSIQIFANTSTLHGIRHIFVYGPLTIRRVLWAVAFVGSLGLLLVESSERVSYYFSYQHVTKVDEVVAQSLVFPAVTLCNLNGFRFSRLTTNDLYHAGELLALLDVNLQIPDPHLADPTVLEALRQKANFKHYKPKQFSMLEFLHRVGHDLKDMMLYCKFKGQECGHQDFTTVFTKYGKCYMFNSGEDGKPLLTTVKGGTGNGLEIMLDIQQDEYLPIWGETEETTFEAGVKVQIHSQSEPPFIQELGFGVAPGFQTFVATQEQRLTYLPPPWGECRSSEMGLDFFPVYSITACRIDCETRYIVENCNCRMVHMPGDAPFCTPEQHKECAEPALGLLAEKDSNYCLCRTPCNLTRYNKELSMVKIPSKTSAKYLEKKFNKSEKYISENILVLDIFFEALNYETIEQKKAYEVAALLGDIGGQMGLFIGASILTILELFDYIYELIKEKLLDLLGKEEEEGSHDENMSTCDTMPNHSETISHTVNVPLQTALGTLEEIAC
compound,measurement,setting,value
N=C(N)c1ccc(N2CCCN(c3ccc(C(=N)N)cc3)CC2)cc1,IC50,[1],1.19 µM
N=C(N)NC(=N)Nc1cccc(Cl)c1Cl,IC50,[2],8 µM
N=C(N)c1ccc(OCCOc2cccc(N)c2)cc1,IC50,[3],250 µM
N=C(N)c1ccc(/C=C/c2ccc(C(=N)N)cc2O)cc1 [HYDROXYSTILBAMIDINE],IC50,[4],1.5 µM
N=C(Nc1ccc(OCCCCCOc2ccc(NC(=N)c3ccccc3)cc2)cc1)c1ccccc1,residual activity,Homo sapiens [5],86.6%
same,residual activity,Homo sapiens [6],12.1%
N=C(N)c1ccc(NCCNc2ccc(C(=N)N)cc2)cc1,Activity,Mus musculus [7],69%
same,Activity,Mus musculus [8],49%
CNC1(c2ccccc2Cl)CCCCC1=O (stereo not drawn) [KETAMINE],IC50,[9],3.31 µM
N=C(N)c1ccc(NC(=O)c2ccc(C(=O)Nc3ccc(C(=N)N)cc3)c(N)c2)cc1,IC50,[3],10 µM
Cc1c(NS(=O)(=O)c2ccc(NC(=O)CCC(=O)O)cc2)c(=O)n(-c2ccccc2)n1C,IC50,[2],> 100 µM
N=C(N)c1ccc(OCCCCCOc2ccc(C(=N)N)cc2)cc1 [PENTAMIDINE],residual activity,Homo sapiens [5],48.2%
same,inhibition,[10],92%
same,IC50,[2],1.2 µM
same,inhibition,[11],74%
same,inhibition,[12],39%
same,Ki,[13],2 µM
same,residual activity,Homo sapiens [6],10.8%
same,Ki,[14],7.6 µM
same,IC50,[3],> 1000 µM
same,IC50,[4],38 µM
same,IC50,[9],0.72 µM
same,Ki,[15],0.29 µM
same,inhibition,[16],51%
Cc1cc(C)c(N2C(=O)c3ccc(C(=O)Nc4cc(C(=O)O)cc(C(=O)O)c4)cc3C2=O)c(C)c1,IC50,[2],44 µM
N=C(N)NC(=N)Nc1ccc(Cl)cc1C(=O)c1ccccc1,IC50,[2],12 µM
N=C(N)c1ccc(-c2cc3ccc(C(=N)N)cc3[nH]2)cc1 [DAPI],IC50,[4],2.8 µM
N=C(N)c1ccc(/N=N/Nc2ccc(C(=N)N)cc2)cc1 [DIMINAZENE],Ki,[13],2.4 µM
same,Ki,[14],120 µM
same,IC50,[4],0.3 µM
same,Ki,[15],0.013 µM
CN1CC[C@@]23CCCC[C@@H]2[C@@H]1Cc1ccc(O)cc13 [DEXTRORPHAN],IC50,[9],1.3 µM
CC(C)(C)NC(=O)c1cccc(N2C(=O)c3ccc(C(=O)O)cc3C2=O)c1,IC50,[2],> 100 µM
